Assay [1] deals with cortical mixed neuronal-glial cultures. Briefly: DCF assay of toxin-induced free radical formation in cortical mixed neuronal-glial cultures. It counts as cell-based, rat. As to the method: (§1) Mixed neuron-glia cell cultures were prepared from the spinal, mesencephalic and cortical regions of an embryonic Sprague-Dawley rat fetus (gestation day 15), respectively, as described in Tsai et al. (Ann. N.Y. Acad. Sci. 1042 (2005):338-348). Briefly, cells were dissociated with a mixture of papain/protease/deoxyribonuclease I (0.1%:0.1%:0.03%) and plated onto poly-lysine coated dishes at a density of 1 to 2×10^5 cells/cm^2 with Dulbecco's modified Eagle's medium (DMEM) supplemented with 10% fetal bovine serum (FBS). On the second day after cell seeding, the cultures were maintained in DMEM+10% FBS or in DMEM supplemented with N2 (Invitrogen, Carlsbad, Calif.) as serum-free medium.
(§2) On the 2nd or 3rd day after cell seeding, the cultures were firstly loaded with 50 μM DCFH-DA in serum-free medium (DMEM+N2) for 1 hr. The medium was then replaced with growth medium containing H2O2 (1 mM) or t-BOOH (0.75 mM) and the cultures were maintained in the growth medium for 2 hrs. HD2 (20 to 200 μg/ml) and baicalein (2 or 10 μM) were then added to the cultures within 10 minutes after the toxin treatment started, respectively. The resulted fluorescent DCF levels were measured by a fluorescence plate reader (ex/em: 485 nm/538 nm). FIGS. 5 and 6 show the results of the measurement.

The subject of assay [2] is spinal cord mixed neuronal-glial cultures. Briefly: DCF assay of toxin-induced free radical formation in spinal cord mixed neuronal-glial cultures. It counts as cell-based, rat. The procedure: as §1, §2
Setting [3] is: H2O2 1 mM, baicalein 2 and 10 μM.
Setting [4] is: t-BOOH 0.75 mM, baicalein 2 or 10 μM, P<0.01.

Each structure is given as a SMILES string.

With `O=c1cc(-c2ccccc2)oc2cc(O)c(O)c(O)c12` [baicalein], the “free radical level induced by H2O2” value in assay [1] (setting [3]) and in assay [2] (setting [3]) was “significantly reduced” throughout. Moreover, the “free radical level induced by t-BOOH” value in assay [1] (setting [4]) and in assay [2] (setting [4]) was “significantly inhibited” throughout.

For the origin of these results see patent US20110171329A1, “METHOD FOR TREATMENT OF NEURAL INJURIES” (priority 2009, published 2011).
